According to ChEMBL document CHEMBL2073972, “Contribution of OATP2 (OATP1B1) and OATP8 (OATP1B3) to the hepatic uptake of pitavastatin in humans” (J Pharmacol Exp Ther, 2004):

Legend:
[1] = biological target: T1, Solute carrier organic anion transporter family member 1B3 (Homo sapiens, UniProt Q9NPD5); test: TP_TRANSPORTER: cell accumulation in OATP8-expressing HEK293 cells; type: functional, cell-based
T1 sequence (Q9NPD5 whole entry): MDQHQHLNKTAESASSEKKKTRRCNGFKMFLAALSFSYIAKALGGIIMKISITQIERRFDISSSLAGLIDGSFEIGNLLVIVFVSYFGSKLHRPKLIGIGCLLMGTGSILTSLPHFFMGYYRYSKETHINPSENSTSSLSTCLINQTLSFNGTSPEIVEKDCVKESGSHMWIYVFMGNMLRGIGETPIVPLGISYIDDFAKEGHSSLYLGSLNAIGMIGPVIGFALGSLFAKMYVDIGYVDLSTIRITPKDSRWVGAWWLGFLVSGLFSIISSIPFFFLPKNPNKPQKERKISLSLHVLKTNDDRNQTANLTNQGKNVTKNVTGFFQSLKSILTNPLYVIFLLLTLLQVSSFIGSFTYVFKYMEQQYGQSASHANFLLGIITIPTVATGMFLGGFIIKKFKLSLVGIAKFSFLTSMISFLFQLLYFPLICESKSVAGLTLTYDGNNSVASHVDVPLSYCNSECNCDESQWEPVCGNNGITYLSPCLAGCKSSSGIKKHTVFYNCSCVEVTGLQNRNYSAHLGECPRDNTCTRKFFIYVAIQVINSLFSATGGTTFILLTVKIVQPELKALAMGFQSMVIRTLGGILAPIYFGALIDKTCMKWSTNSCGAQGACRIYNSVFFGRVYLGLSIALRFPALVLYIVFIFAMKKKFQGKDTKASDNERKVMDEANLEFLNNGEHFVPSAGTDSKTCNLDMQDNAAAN

[2] = biological target: T2, Solute carrier organic anion transporter family member 1B1 (Homo sapiens, UniProt Q9Y6L6); test: TP_TRANSPORTER: cell accumulation in OATP2-expressing HEK293 cells; type: functional, cell-based
T2 sequence (Q9Y6L6 whole entry): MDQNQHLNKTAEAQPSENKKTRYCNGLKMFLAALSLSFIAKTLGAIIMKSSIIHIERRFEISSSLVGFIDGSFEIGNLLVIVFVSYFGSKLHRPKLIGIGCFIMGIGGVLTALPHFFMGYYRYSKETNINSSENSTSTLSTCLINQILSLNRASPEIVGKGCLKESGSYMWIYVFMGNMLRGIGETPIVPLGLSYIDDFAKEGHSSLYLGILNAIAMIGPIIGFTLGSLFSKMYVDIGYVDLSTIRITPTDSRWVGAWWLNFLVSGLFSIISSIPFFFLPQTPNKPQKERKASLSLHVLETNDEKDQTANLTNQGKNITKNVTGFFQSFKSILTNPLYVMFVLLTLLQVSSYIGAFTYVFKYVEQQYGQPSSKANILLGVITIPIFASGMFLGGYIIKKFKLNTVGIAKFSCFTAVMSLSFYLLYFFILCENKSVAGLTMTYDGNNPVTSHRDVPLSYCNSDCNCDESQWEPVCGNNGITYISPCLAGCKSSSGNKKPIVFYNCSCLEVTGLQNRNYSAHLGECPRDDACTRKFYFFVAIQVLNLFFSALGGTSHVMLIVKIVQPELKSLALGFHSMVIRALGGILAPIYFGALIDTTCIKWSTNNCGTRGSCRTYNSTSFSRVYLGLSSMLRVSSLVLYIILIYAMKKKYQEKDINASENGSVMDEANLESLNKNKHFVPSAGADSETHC

Compound	Activity [1]	Activity [2]
C[C@]12CC[C@@H]3c4ccc(O)cc4CC[C@H]3[C@@H]1CC[C@@H]2O[C@@H]1O[C@H](C(=O)O)[C@@H](O)[C@H](O)[C@H]1O [ESTRADIOL 17B GLUCURONIDE]	substrate []	substrate []
C[C@]12CC[C@@H]3c4ccc(OS(=O)(=O)O)cc4CC[C@H]3[C@@H]1CCC2=O [ESTRONE SULFURIC ACID]	substrate []	substrate []
O=C(O)C[C@H](O)C[C@H](O)/C=C/c1c(C2CC2)nc2ccccc2c1-c1ccc(F)cc1 [PITAVASTATIN]	substrate []	substrate []
CSCC[C@H](NC(=O)[C@H](Cc1ccc(OS(=O)(=O)O)cc1)NC(=O)[C@@H](N)CC(=O)O)C(=O)NCC(=O)N[C@@H](Cc1c[nH]c2ccccc12)C(=O)N[C@@H](CCSC)C(=O)N[C@@H](CC(=O)O)C(=O)N[C@@H](Cc1ccccc1)C(N)=O [SINCALIDE]	substrate []	substrate []
